# US7071215B2 (Pharmacia & Upjohn Company LLC, priority 2002, dated 2006)
# Experiment: binding assay as described in U.S. Pat. No. 5,859,188 (Geary, et al., 1999): displacement of a radiolabelled ligand
# Settings: percent displacement of a radiolabelled ligand at 25 micromolar
# Protocol: Selected compounds were evaluated for their anti-parasitic activity in a binding assay as described in U.S. Pat. No. 5,859,188 (Geary, et al., 1999). Results of the evaluations are given in Table 2 wherein “% Inhibition” means percent displacement of a radiolabelled ligand at 25 micromolar as described.
row,Structure (SMILES),% Inhibition
1,O=C(CN1CCCC(O)C1)Nc1sc2c(c1C(=O)c1ccc(F)cc1)CCSC2 (stereo not shown) [Compound 53],19–20%
2,O=C(CN1CCCC(O)C1)Nc1sc2c(c1C(=O)c1ccco1)CCSC2 (stereo not shown) [Compound 10],21–38%
3,"O=C(CN1CCCC(O)C1)Nc1sc2c(c1C(=O)c1ccc(Cl)cc1)CCOC2 (stereo not shown) [Compound 3, N-[3-(4-chlorobenzoyl)-4,7-dihydro-5H-thieno[2,3-c]pyran-2-yl]-2-(3-hydroxypiperidin-1-yl)acetamide]",96–97%
4,"O=C(CN1CCCCC1)Nc1sc2c(c1C(O)c1ccc(Cl)cc1)CCOC2 (stereo not shown) [Compound 2, N-{3-[(4-chlorophenyl)(hydroxy)methyl]-4,7-dihydro-5H-thieno[2,3-c]pyran-2-yl}-2-piperidin-1-ylacetamide]",85–95%
5,O=C(CN1CCCC(O)C1)Nc1sc2c(c1C(O)c1cccs1)CCSC2 (stereo not shown) [Compound 49],46–55%
6,Cc1ccc(C(O)c2c(NC(=O)CN3CCCC(O)C3)sc3c2CCSC3)cc1 (stereo not shown) [Compound 40],100%
7,O=C(CN1CCCCC1)Nc1sc2c(c1C(=O)c1cccs1)CCSC2 [Compound 37],0–66%
8,O=C(CN1CCCCC1)Nc1sc2c(c1C(=O)c1cccc(F)c1)CCSC2 [Compound 56],99–100%
9,O=C(CN1CCCCCC1)Nc1sc2c(c1C(O)c1ccc(Cl)cc1)CCSC2 (stereo not shown) [Compound 24],11–58%
10,O=C(CN1CCCC(O)C1)Nc1sc2c(c1C(O)c1ccc(F)cc1)CCSC2 (stereo not shown) [Compound 54],93–97%
11,O=C(CN1CCCC(O)C1)Nc1sc2c(c1C(=O)c1cccc(C(F)(F)F)c1)CCSC2 (stereo not shown) [Compound 33],92–94%

# More lines, now with the values ahead:
row,% Inhibition,Structure (SMILES)
1,93–99%,"O=C(CN1CCCCC1)Nc1sc2c(c1C(=O)c1ccc(Cl)cc1)CCOC2 [Compound 1, N-[3-(4-chlorobenzoyl)-4,7-dihydro-5H-thieno[2,3-c]pyran-2-yl]-2-piperidin-1-ylacetamide]"
2,100%,O=C(CN1CCCC(O)C1)Nc1sc2c(c1C(=O)c1ccc(F)c(F)c1)CCSC2 (stereo not shown) [Compound 55]
3,11–79%,Cc1ccc(C(=O)c2c(NC(=O)CN3CCCC(O)C3)sc3c2CCSC3)cc1 (stereo not shown) [Compound 28]
4,72–84%,"O=C(CN1CCCC(O)C1)Nc1sc2c(c1C(O)c1ccc(Cl)cc1)CCOC2 (stereo not shown) [Compound 4, N-{3-[(4-chlorophenyl)(hydroxy)methyl]-4,7-dihydro-5H-thieno[2,3-c]pyran-2-yl}-2-(3-hydroxypiperidin-1-yl)acetamide]"
5,86–88%,O=C(CN1CCCC(O)C1)Nc1sc2c(c1C(O)c1ccc(Cl)cc1)CCSC2 (stereo not shown) [Compound 20]
